Laboratory results from patent US6800280B2, “Methods for treating HIV-infected patients by the administration of GM-CSF and a protease inhibitor” (Schering AG, priority 1997, dated 2004).
Where “and” joins values, the source holds several entries; their conditions need not be identical. Equal values may be shown once. Entries after “also recorded” stand apart in the source; their conditions may differ.

Experiments:
[1] = test system: HIV; assay: Phase I/II trial: HIV viral load by RNA-PCR (Amplicor) in HIV-infected patients; format: in vivo, Human Immunodeficiency Virus (HIV); conditions: GM-CSF group versus placebo group throughout the study, concurrent antiretroviral drugs
Experimental: (§1) A study was conducted to determine the safety and efficacy of human GM-CSF as a therapeutic reagent in HIV-infected patients. Because some in vitro studies had indicated the possibility that GM-CSF might enhance HIV replication in vivo, this study assessed the impact of co-administration of GM-CSF with an antiretroviral agent on HIV replication. HIV viral burden was measured by the RNA-PCR (Amplicor®) method. To assess the effects of this treatment on lymphocyte counts, blood samples were analyzed throughout the study for determination of CD3^+, CD4^+, and CD8^+ T-lymphocyte counts.
This study was a Phase I/II, randomized, double-blind, placebo-controlled, two-center trial involving patients with HIV disease. […] Viral load was determined at baseline (mean of three determinations within fourteen days of study entry), then at two weeks, four weeks, and eight weeks after starting study drugs, and on two separate occasions approximately four weeks after the conclusion of the treatment phase (post-treatment evaluation). […]
At 2, 4 and 8 weeks after the start of study drug and at follow-up (approximately 4 weeks after completion of study drug), patients were examined, their medical histories were updated, and samples were taken for laboratory studies. A central laboratory was utilized for HIV quantification laboratory tests in order to standardize procedures and minimize variability. […]

[2] = test system: CD4^+ T-lymphocyte counts; assay: Phase I/II randomized, double-blind, placebo-controlled trial: CD4^+ T-lymphocyte counts in HIV-infected patients; format: in vivo, human
Experimental: as §1
This study was a Phase I/II, randomized, double-blind, placebo-controlled, two-center trial involving patients with HIV disease. Patients meeting specific entry criteria were randomized to treatment with GM-CSF or placebo, and these were administered by subcutaneous injection three times per week for eight weeks. Viral load was determined at baseline (mean of three determinations within fourteen days of study entry), then at two weeks, four weeks, and eight weeks after starting study drugs, and on two separate occasions approximately four weeks after the conclusion of the treatment phase (post-treatment evaluation). Clinical and lymphocyte subset evaluations were performed at each of these same time points (i.e., pre-treatment, week 2, week 4, week 8, and 4 weeks post-study). Twenty patients were enrolled in the study, ten per treatment arm. All twenty patients completed the study.
Patients were eligible for inclusion in the study if the following parameters were met: documented HIV infection, including detectable RNA-PCR during baseline evaluation period, age ≧18 years (or legal age of consent), adequate hematologic function, satisfactory hepatic and renal function, adequate clinical performance status, treatment with an antiretroviral regimen that included either ritonavir or indinavir for at least 8 weeks prior to study enrollment and agreement to continue on a stable regimen throughout the study, ability and willingness to provide written informed consent, agreement to practice medically-approved contraception.
Patients were ineligible for inclusion in the study if the following exclusion criteria were met: concurrent pregnancy or breast feeding, concurrent use of other colony stimulating factors or cytokines (other than erythropoietin), life-expectancy <90 days, concurrent radiation or systemic cancer chemotherapy (or within 2 weeks prior to study entry), inability to self-administer or arrange for administration of subcutaneous injections, significant cardiac disease, prior history of adverse reaction to yeast-derived rhu GM-CSF which would prohibit retreatment, active infection (AIDS-related or not) requiring acute systemic therapy within 8 weeks prior to study enrollment, vaccination of any kind within 8 weeks of study enrollment.
Study participants were randomly assigned to receive either active GM-CSF or placebo. Patients were instructed in methods for self-administration of study medication and received preloaded syringes or vials with empty syringes for home use.
The formulation of recombinant human GM-CSF utilized in this clinical trial was LEUKINE® (commercially available from Immunex Corporation, Seattle, Wash.). LEUKINE® and placebo were supplied as lyophilized powders. Both LEUKINE® and placebo were reconstituted by the aseptic injection of Bacteriostatic Water for Injection, USP, containing 0.9% benzyl alcohol. […] These were 40 mg mannitol, USP; 10 mg sucrose, NF; and 1.2 mg TRIS (tromethamine), USP; per vial of study drug. Vials containing placebo were labeled in a fashion identical to vials containing LEUKINE®. Vials of placebo and LEUKINE® were stored refrigerated at 2-8° C. (36-46° F.). […]

[3] = WEEK 2, 9 patients, 250 mcg s.c. three times per week
[4] = WEEK 4, 10 patients, 250 mcg s.c. three times per week
[5] = WEEK 8, 10 patients, 250 mcg s.c. three times per week
[6] = WEEK 12 (post-treatment), 10 patients

Substance: GM-CSF: biosynthetic, yeast-derived, recombinant human GM-CSF; single 127 amino acid glycoprotein with leucine instead of proline at position 23
- Change in viral load (in words) [1]: no significant increase; also recorded: No significant differences; also recorded: without a concurrent increase
- Effect on CD4^+ T-lymphocyte counts (in words) ([2]; GM-CSF arm versus baseline / placebo, patients concurrently receiving antiretroviral drugs): a trend towards an increase; also recorded: increased at all of the evaluation points; also recorded: significant increase
- Change in CD4^+ T-Lymphocyte Counts Relative to Baseline, Mean (Sd) [2, 3]: 39 (150)
- Change in CD4^+ T-Lymphocyte Counts Relative to Baseline, Median [2, 3]: −9
- Change in CD4^+ T-Lymphocyte Counts Relative to Baseline, Min-Max [2, 3]: −79-389
- Change in CD4^+ T-Lymphocyte Counts Relative to Baseline, Mean (Sd) [2, 4]: 40 (68)
- Change in CD4^+ T-Lymphocyte Counts Relative to Baseline, Median [2, 4]: 34
- Change in CD4^+ T-Lymphocyte Counts Relative to Baseline, Min-Max [2, 4]: −61-135
- Change in CD4^+ T-Lymphocyte Counts Relative to Baseline, Mean (Sd) [2, 5]: 79 (172)
- Change in CD4^+ T-Lymphocyte Counts Relative to Baseline, Median [2, 5]: 4
- Change in CD4^+ T-Lymphocyte Counts Relative to Baseline, Min-Max [2, 5]: −68-424
- Change in CD4^+ T-Lymphocyte Counts Relative to Baseline, Mean (Sd) [2, 6]: 28 (54)
- Change in CD4^+ T-Lymphocyte Counts Relative to Baseline, Median [2, 6]: 30
- Change in CD4^+ T-Lymphocyte Counts Relative to Baseline, Min-Max [2, 6]: −68-112
- Absolute CD4^+ T-Lymphocyte Counts, Baseline CD4 ([2]; individual patients of GM-CSF arm, baseline (pre-treatment), on ritonavir or indinavir regimen): 276 and 383 and 65 and 590 and 152 and 91 and 24 (2×) and 40 and 136
- Absolute CD4^+ T-Lymphocyte Counts, Post-Study CD4 ([2]; individual patients, approximately 4 weeks after completion of 8-week treatment, 250 mcg s.c. three times per week): 208 and 373 and 77 and 659 and 199 and 161 and 11 and 33 and 136 and 200
- Absolute CD4^+ T-Lymphocyte Counts, Week 2 CD4 ([2]; individual patients, week 2, 250 mcg s.c. three times per week for eight weeks, concurrent ritonavir or indinavir regimen): 229 and 304 and 227 and 979 and 77 and 25 and 26 and 15 and 157
- Absolute CD4^+ T-Lymphocyte Counts, Week 4 CD4 ([2]; individual patients, week 4, 250 mcg s.c. three times per week for eight weeks, concurrent ritonavir or indinavir regimen): 356 and 477 and 31 and 725 and 91 and 219 and 12 and 61 and 26 and 182
- Absolute CD4^+ T-Lymphocyte Counts, Week 8 CD4 ([2]; individual patients, week 8, 250 mcg s.c. three times per week for eight weeks, concurrent ritonavir or indinavir regimen): 238 and 750 and 76 and 1014 and 84 and 162 and 21 and 29 and 18 and 176
- Absolute CD4^+ T-Lymphocyte Counts, Post-Study CD4, Median ([2]; median of GM-CSF arm, approximately 4 weeks post-treatment): 180
- Absolute CD4^+ T-Lymphocyte Counts, Baseline CD4, Median ([2]; median of GM-CSF arm, baseline (pre-treatment)): 114
- Absolute CD4^+ T-Lymphocyte Counts, Week 2 CD4, Median ([2]; median of GM-CSF arm, week 2, 250 mcg s.c. three times per week): 157
- Absolute CD4^+ T-Lymphocyte Counts, Week 4 CD4, Median ([2]; median of GM-CSF arm, week 4, 250 mcg s.c. three times per week): 137
- Absolute CD4^+ T-Lymphocyte Counts, Week 8 CD4, Median ([2]; median of GM-CSF arm, week 8, 250 mcg s.c. three times per week): 123
- MAXIMUM CHANGE > 30% THRU WEEK 8, n/N ([2]; patients with CD4^+ change of 30% or more over baseline / patients counted, thru week 8): 6/10
- MAXIMUM CHANGE > 30% THRU WEEK 12, n/N ([2]; patients with CD4^+ change of 30% or more over baseline / patients counted, thru week 12): 8/10
- MAXIMUM CHANGE > 30% THRU WEEK 12, (%) of patients ([2]; share of patients with CD4^+ change of 30% or more over baseline, thru week 12): (80%)
